In ChEMBL document CHEMBL3272282, “Adrenergic agents. 6. Synthesis and potential beta-adrenergic agonist activity of some meta-substituted p-hydroxyphenylethanolamines related to salbutamol” (J Med Chem, 1977):

Legend:
[1] = Agonist activity at beta-adrenoceptor in guinea pig atria assessed as cardiac stimulant activity by measuring change in rate of contraction of right atrial muscle; assay type: tissue-based, Cavia porcellus, Cardiac atrium
[2] = Separation ratio of ED25 at beta-adrenoceptor in guinea pig atria to ED50 for beta-adrenoceptor in guinea pig trachea; set-up: species or system Cavia porcellus
Cavia porcellus [3] = organism: Cavia porcellus; test: Intrinsic activity at beta-adrenoceptor in guinea pig trachea assessed as relaxation of spontaneously contracted tracheal smooth muscle relative to papaverine; assay type: tissue-based
Cavia porcellus [4] = organism: Cavia porcellus; test: Agonist activity at beta-adrenoceptor in guinea pig trachea assessed as relaxation of spontaneously contracted tracheal smooth muscle; assay type: tissue-based
[5] = Intrinsic activity at beta-adrenoceptor in guinea pig atria assessed as cardiac stimulant activity by measuring change in rate of contraction of right atrial muscle relative to isoproterenol; assay type: ADME, tissue-based, Cavia porcellus, Cardiac atrium
[6] = Agonist activity at beta-adrenoceptor in guinea pig atria assessed as cardiac stimulant activity by measuring change in rate of contraction of right atrial muscle at 0.12 mM; assay type: tissue-based, Cavia porcellus, Cardiac atrium; settings: 120 µM
[7] = Agonist activity at beta-adrenoceptor in guinea pig atria assessed as cardiac stimulant activity by measuring change in rate of contraction of right atrial muscle at 92 uM; assay type: tissue-based, Cavia porcellus, Cardiac atrium
[8] = Agonist activity at beta-adrenoceptor in guinea pig atria assessed as cardiac stimulant activity by measuring change in rate of contraction of right atrial muscle at 0.11 mM; assay type: tissue-based, Cavia porcellus, Cardiac atrium; settings: 110 µM
[9] = Agonist activity at beta-adrenoceptor in guinea pig atria assessed as cardiac stimulant activity by measuring change in rate of contraction of right atrial muscle at 56 uM; assay type: tissue-based, Cavia porcellus, Cardiac atrium
Cavia porcellus [10] = organism: Cavia porcellus; test: Agonist activity at beta-adrenoceptor in guinea pig trachea assessed as relaxation of spontaneously contracted tracheal smooth muscle at 11 uM; assay type: tissue-based; set-up: scale not given: the % may be the effect or the level left
[11] = Agonist activity at beta-adrenoceptor in guinea pig atria assessed as cardiac stimulant activity by measuring change in rate of contraction of right atrial muscle at 14 uM; assay type: tissue-based, Cavia porcellus, Cardiac atrium
Cavia porcellus [12] = organism: Cavia porcellus; test: Agonist activity at beta-adrenoceptor in guinea pig trachea assessed as relaxation of spontaneously contracted tracheal smooth muscle at 12 uM; assay type: tissue-based; set-up: scale not given: the % may be the effect or the level left

Row | ED25 [1] | Ratio [5] | Activity [6] [%] | Activity [7] [%] | Activity [8] [%] | Activity [9] [%] | Activity [11] [%] | Compound | Ratio [2] | Ratio (Cavia porcellus [3]) | ED50 (Cavia porcellus [4]) | Activity (Cavia porcellus [10]) [%] | Activity (Cavia porcellus [12]) [%]
1 |  | 0.7 |  |  |  |  |  | CC(C)(C)NCC(O)c1ccc(O)c(CO)c1 (configuration not stated) [ALBUTEROL] | 28 | 1 | 1.1 ×10⁻⁸ M |  | 
2 | 1.2 ×10⁻⁴ M |  | 23 |  |  |  |  | COCC(O)c1cc(C(O)CNC(C)(C)C)ccc1O (configuration not stated) | 236 | 0.9 | 5.3 ×10⁻⁷ M |  | 
3 | 5200 nM | 0.3 |  |  |  |  |  | CC(O)c1cc(C(O)CNC(C)(C)C)ccc1O (configuration not stated) | 289 | 1 | 1.8 ×10⁻⁸ M |  | 
4 |  |  |  |  | 0 |  |  | COC(CO)c1cc(C(O)CNC(C)(C)C)ccc1O (configuration not stated) | >320 | 0.7 | 3.4 ×10⁻⁷ M |  | 
5 | 3 ×10⁻⁵ M | 0.3 |  |  |  |  |  | CC(C)(C)NCC(O)c1ccc(O)c(C(O)CO)c1 (configuration not stated) | 303 | 1 | 9.9 ×10⁻⁸ M |  | 

The remaining lines, values behind:

Row | Compound | ED25 [1] | Ratio [5] | Activity [6] [%] | Activity [7] [%] | Activity [8] [%] | Activity [9] [%] | Activity [11] [%] | Ratio [2] | Ratio (Cavia porcellus [3]) | ED50 (Cavia porcellus [4]) | Activity (Cavia porcellus [10]) [%] | Activity (Cavia porcellus [12]) [%]
6 | CC(C)(C)NCC(O)c1ccc(O)c(O)c1 (configuration not stated) [COLTEROL] | 7.1 nM | 1 |  |  |  |  |  | 5.5 | 1 | 1.3 nM |  | 
7 | CC(C)NCC(O)c1ccc(O)c(O)c1 (configuration not stated) [ISOPROTERENOL] |  |  |  |  |  |  |  |  | 1 | 7.1 nM |  | 
8 | CC(C)(C)NCC(O)c1ccc(O)c(C(O)CNC(C)(C)C)c1 (configuration not stated) | 9.2 ×10⁻⁵ M |  |  | 14 |  |  |  | >6 | 0.9 | 1.5 ×10⁻⁵ M |  | 
9 | CC(C)(C)NCC(O)c1ccc(O)c(C(C)(C)O)c1 (configuration not stated) |  |  |  |  |  | 8 |  |  |  | 1.1 ×10⁻⁵ M | 30 | 
10 | CC(C)(C)NCC(O)c1ccc(O)c(C(O)CS(C)(=O)=O)c1 (configuration not stated) | 1.4 ×10⁻⁵ M |  |  |  |  |  | 0 |  |  | 1.2 ×10⁻⁵ M |  | 34
